Consider seven molecules from patent US7326700B2, “Cyclohexenyl phenyl carboxamides tocolytic oxytocin receptor antagonists” (Wyeth, priority 2001, dated 2008).

The target of this test is T1, human vasopressin V1a receptor subtype (Homo sapiens, UniProt P37288).
T1 construct: host or cells: CHO cells, stably transfected (pZeoSV vector for the Thibonnier line)
Put plainly: Vasopressin binding in CHO cell membranes expressing human vasopressin V1a subtype receptors ([3H]Manning ligand radioligand binding). Particulars: for inhibition at 0.1 µM / V1a % inhibition @ 100 nM: 100 nM. The source says:
Chinese hamster ovary cells (CHO cells) stably transfected with the human vasopressin V1a subtype receptors were either obtained from Biosignal Inc., 1744 rue Williams, Montreal, Quebec, Canada or obtained from M. Thibonnier, Case Western Reserve University School of Medicine, Cleveland, Ohio.
CHO cells transfected with the human vasopressin V1a subtype receptors obtained from M. Thibonnier (pZeoSV vector) are allowed to grow to confluency (approx. >90%) in T-150 flasks under sterile conditions, in a cell culture medium consisting of F-12 Nutrient Mixture (HAM) with L-glutamine (Gibco Cat. #11765-054) containing 15 mM HEPES (Gibco Cat. #15630-080), 1% antibiotic/antimycotic (add 5 mL 100×, Gibco Cat. #15240-062 per 500 mL F-12), 250 μg/mL Zeocin (add 1.25 mL of 100 mg/mL Invitrogen R-250-01 per 500 mL F-12) and 10% Fetal Bovine Serum (Qualified, heat inactivated, Gibco Cat. #16140-063). The medium is removed by aspiration and the cells are washed with 10 mL of Hank's Balanced Salt solution (Gibco Cat. #14175-095). The salt solution is removed by aspiration and the cells are trypsinized with 5 mL of trypsin-EDTA (0.05% trypsin, 0.53 mM EDTA-4Na, Gibco Cat. #25300-070) for 1 min. The trypsin is removed by aspiration and the cells dislodged by tapping. Cell Culture medium (eg, 30 mL for 1:30 split) is immediately added and mixed well to inactivate trypsin. 1 mL of detached cells is added to new culture flasks containing fresh cell culture medium (eg, into 25 mL per T-150 flask), and mixed gently. The cells are incubated at 37° C. in 5% CO2. The medium is changed at 3 to 4 days interval (or as appropriate). The cells grow to confluency (approx. >75%-95%) within 7-8 days. All steps are done under sterile conditions.
The cells are washed twice gently with Hank's Balanced Salt solution (e.g,. use 10 mL per T-150 flask). The excess is removed and the cells are bathed for 15-30 min. in an enzyme-free Cell Dissociation Buffer (e.g. use 8 mL Hank's Based, Gibco Cat. #13150-016 per T-150 flask) until the cells are loosened. The contents are transferred to centrifuge tubes (50 mL) kept in an ice bath. All subsequent steps are done at 4° C. The tubes are centrifuged at 300×g for 15 min (1380 rpm on SORVAL, Model RT6000D, using the rotor for 50 mL tubes). The supernatant is discarded and the cells suspended in homogeneizing buffer (10 mM Tris-HCl containing 0.25 M sucrose and 1 mM EDTA, pH 7.4) ensuring that the volume of the buffer is about ten times the volume of the cell pellet. The cells are pooled into a centrifuge tube (50 mL) and homogenized with Polytron at setting 6 for 10 sec. The homogenate is transferred into a Potter-Elvjehm homogenizer and homogenized with 3 strokes. The homogenate is centrifuged at 1500×g for 10 min at 4° C. (3100 rpm using SORVAL, model RT6000D, using the rotor for 50 mL tubes). The pellet is discarded. The supernatant is centrifuged at 100,000×g for 60 min. at 4° C. (Beckman L8-80M ultracentrifuge; spin at 37,500 rpm with rotor type 70 Ti for 50 mL tubes; 38,000 rpm with type 80Ti for 15 mL tubes; or 35,800 rpm with rotor type 45Ti). The supernantant is discarded and the pellet suspended in 3 to 4 mL of Tris buffer (50 mM TRIS-HCl, pH 7.4). The protein content is estimated by the Bradford or Lowry method. The volume of the membrane suspension is adjusted with the membrane buffer (50 mM Tris-HCl containing 0.1% BSA and 0.1 mM PMSF) to give 3.0 mg/mL (or as appropriate) of protein. The membranes are aliquoted and stored at −70° C.
In wells of a 96-well format microtiter plate, is added 90, 110 or 130 μL (to make up a final volume of 200 μL) of assay buffer containing 50 mM of Tris-HCl (pH 7.4), BSA (heat inactivated, protease-free), […], 1 mg % aprotinin, 1 mg % leupeptin, 2 mg % 1,10-phenanthroline, 10 mg % trypsin inhibitor, and 0.1 mM PMSF. The inhibitors are added on the day of the experiment. […]

T1 sequence (P37288 whole entry): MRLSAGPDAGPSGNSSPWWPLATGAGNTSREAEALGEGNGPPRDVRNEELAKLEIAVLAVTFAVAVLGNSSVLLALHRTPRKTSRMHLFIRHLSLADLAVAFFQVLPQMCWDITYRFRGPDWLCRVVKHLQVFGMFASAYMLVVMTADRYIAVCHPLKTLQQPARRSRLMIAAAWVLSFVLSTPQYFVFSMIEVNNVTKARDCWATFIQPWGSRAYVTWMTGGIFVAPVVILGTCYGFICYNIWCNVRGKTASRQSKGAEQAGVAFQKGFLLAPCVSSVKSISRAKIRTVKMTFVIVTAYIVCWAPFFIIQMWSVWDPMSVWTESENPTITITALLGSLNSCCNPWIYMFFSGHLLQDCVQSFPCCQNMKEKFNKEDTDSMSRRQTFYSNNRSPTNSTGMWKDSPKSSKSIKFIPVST

A word on the inhibition: it is how much of the control response was suppressed. Read a low inhibition as little suppression. For the molecule `Cc1cc(C(=O)N2Cc3ccc(C(=O)N4CCN(C)CC4)n3Cc3ccccc32)ccc1C1=CCCc2ccccc21` [Example 6, {10-[4-(3,4-Dihydro-naphthalen-1-yl)-3-methyl-benzoyl]-10,11-dihydro-5H-benzo[e]pyrrolo[1,2-a][1,4]diazepin-3-yl}-(4-methyl-piperazin-1-yl)-methanone], the inhibition at 0.1 µM was 4%.
Broadly, the IC50 is the concentration that gives 50% inhibition. For “{10-[4-(1-Cyclohexen-1-yl)-3-methylbenzoyl]-10,11-dihydro-5H-pyrrolo[2,1-c][1,4]benzodiazepin-3-yl}(4-methyl-piperazin-1-yl)methanone [Example 12]”, the IC50 (value in parentheses) was found to be 421 nM.
As for `Cc1cc(C(=O)N2Cc3ccc(C(=O)N4CCN(CCCN(C)C)CC4)n3Cc3ccccc32)ccc1C1=CCCc2ccccc21` [Example 7, {10-[4-(3,4-Dihydro-naphthalen-1-yl)-3-methyl-benzoyl]-10,11-dihydro-5H-pyrrolo[2,1-c][1,4]benzodiazepin-3-yl}-[4-(3-dimethylamino-propyl)-piperazin-1-yl]-methanone], the inhibition at 0.1 µM amounted to 7%.
As to `Cc1cc(C(=O)N2Cc3ccc(C(=O)NCCN4CCCCC4)n3Cc3ccccc32)ccc1C1=CCCCC1` [Example 20, 10-[4-(1-Cyclohex-1-en-1-yl)-3-methylbenzoyl]-N-[2-(1-piperidinyl)ethyl]-10,11-dihydro-5H-pyrrolo[2,1-c][1,4]benzodiazepine-3-carboxamide], the “V1a % inhibition @ 100 nM” value was found to be 23%.
Same read-out and setting: the result for `Cc1cc(C(=O)N2Cc3ccc(C(=O)N4CCCN(C)CC4)n3Cc3ccccc32)ccc1C1=CCCCC1` [Example 13, {10-[4-(1-Cyclohex-1-en-1-yl)-3-methylbenzoyl]-10,11-dihydro-5H-pyrrolo[2,1-c][1,4]benzodiazepin-3-yl}(4-methyl-1,4-diazepan-1-yl)methanone] reads 34%.
For the molecule `Cc1cc(C(=O)N2Cc3ccc(C(=O)NCCCN(C)C)n3Cc3ccccc32)ccc1C1=CCCCC1` [Example 14, 10-[4-(1-Cyclohex-1-en-1-yl)-3-methylbenzoyl]-N-[3-(dimethylamino)propyl]-10,11-dihydro-5H-pyrrolo[2,1-c][1,4]benzodiazepine-3-carboxamide], the “V1a % inhibition @ 100 nM” value is recorded as 24%.
The same measure, in the same setting: the result for `Cc1cc(C(=O)N2Cc3ccc(C(=O)N(C)CCN(C)C)n3Cc3ccccc32)ccc1C1=CCCCC1` [Example 15, 10-[4-(1-Cyclohex-1-en-1-yl)-3-methylbenzoyl]-N-[2-(dimethylamino)ethyl]-N-methyl-10,11-dihydro-5H-pyrrolo[2,1-c][1,4]benzodiazepine-3-carboxamide] reads 71%.
